Results published in patent publication US20060210480A1, “Treatment of reduction of dysphagia” (priority 2005, published 2006).

How the values were obtained:
swallowing response [1] = assay: Ten-minute infusion of taste stimuli directly into the stomach; pharyngeal MEP (Example 3); type: in vivo, human; conditions: volunteers; ten minute infusion administered directly to the stomach
Source text: The ability of substances such as the […] tasting alkaloid quinine to stimulate the swallowing response when administered into the portion of the upper digestive tract below the mouth was in a third study measuring swallowing reflexes of volunteers receiving neutral, pleasant or aversive taste stimuli. Volunteers receive a ten minute infusion of neutral (water), pleasant (glucose) or aversive (quinine) taste stimuli administered directly into the volunteer's stomach.

[2] = tested on: human cortical swallowing pathways; assay: Ten-minute liquid swallowing task with taste solutions; TMS-evoked cortico-pharyngeal motor responses (Example 1); type: in vivo; conditions: 8 healthy adult volunteers; 0.5 mM quinine hydrochloride swallowing task; immediately and throughout 60 minutes post-intervention; p<0.01
Description: An assessment was made as to the effects of different taste stimuli on human cortical swallowing pathways. The assessment was made upon 8 healthy adult volunteers (seven of which were male, the minimum age of the volunteers being 29 years).
Each volunteer performed a ten-minute, liquid swallowing task using three (previously titrated) different taste solutions. The three solutions utilised were sterile water (neutral taste), 10% glucose (sweet/pleasant taste), and 0.5 mM quinine hydrochloride (bitter/aversive taste). Solutions were randomised to separate studies at least 24 hours apart.
Transcranial magnetic stimulation was performed over the swallowing motor cortex, before and up to one hour after each swallow task in accordance with established protocols. Briefly, Single pulse (monophasic) transcranial stimulation (sTMS) of the cerebral cortex was achieved using a magnetic stimulator (a Magstim 200, manufactured by MAGSTIM Company Limited, Whitland, Wales) connected to a 70 mm outer diameter figure-of-8 coil (maximal output of 2.2 Tesla (T)), held in an A-P (Anterior-Posterior) direction, at an angle of 45° tangential to the scalp. […]
Cortico-pharyngeal motor responses were recorded from a swallowed intra-luminal catheter as a measure of cortical excitability. […]

swallowing response [3] = assay: Ten-minute infusion of taste stimuli onto the taste receptors of the tongue; pharyngeal MEP (Example 2); type: in vivo, human; conditions: volunteers; ten minute infusion to tongue taste receptors; taken over a 60 minute period from administration
Source text: Confirmation of the suitability of […] tasting substances such as the alkaloid quinine to stimulate the swallowing response and thereby aid treatment or reduction of dysphagia was obtained from a second study measuring swallowing reflexes of volunteers receiving neutral, pleasant or aversive taste stimuli. Volunteers receive a ten minute infusion of neutral (water), pleasant (glucose) or aversive (quinine) taste stimuli administered such that they stimulated the taste receptors of the tongue.

## C=C[C@H]1C[N@@]2CC[C@H]1C[C@H]2[C@H](O)c1ccnc2ccc(OC)cc12 [quinine]
Swallowing response [1]
  increase in the swallowing response (measured by MEP): 39%
[2]
  maximum percentage change from base line in pharyngeal motor evoked potential (MEP) amplitude: 48±11%
Swallowing response [3]
  increase in the amplitude of MEP compared with neutral tasting water or pleasant tasting glucose: greater increase
